Earlier results on 1 compound are cited in patent US9857354B2, “Compositions and methods for prognosis and treatment of neoplasm” (NOVAZOI THERANOSTICS, INC., priority 2014, dated 2018).

In general, Ki refers to the equilibrium dissociation constant of an inhibitor or competing ligand from its target.

Series [1] deals with BT-549 breast cancer cells. Particulars: BT-549 breast cancer cells with amplified centrosomes.
For series [2], the target named is T1, KIFC1/microtubule (MT) binary complex (Homo sapiens, UniProt Q9BW19).
T1 sequence (Q9BW19 1-673): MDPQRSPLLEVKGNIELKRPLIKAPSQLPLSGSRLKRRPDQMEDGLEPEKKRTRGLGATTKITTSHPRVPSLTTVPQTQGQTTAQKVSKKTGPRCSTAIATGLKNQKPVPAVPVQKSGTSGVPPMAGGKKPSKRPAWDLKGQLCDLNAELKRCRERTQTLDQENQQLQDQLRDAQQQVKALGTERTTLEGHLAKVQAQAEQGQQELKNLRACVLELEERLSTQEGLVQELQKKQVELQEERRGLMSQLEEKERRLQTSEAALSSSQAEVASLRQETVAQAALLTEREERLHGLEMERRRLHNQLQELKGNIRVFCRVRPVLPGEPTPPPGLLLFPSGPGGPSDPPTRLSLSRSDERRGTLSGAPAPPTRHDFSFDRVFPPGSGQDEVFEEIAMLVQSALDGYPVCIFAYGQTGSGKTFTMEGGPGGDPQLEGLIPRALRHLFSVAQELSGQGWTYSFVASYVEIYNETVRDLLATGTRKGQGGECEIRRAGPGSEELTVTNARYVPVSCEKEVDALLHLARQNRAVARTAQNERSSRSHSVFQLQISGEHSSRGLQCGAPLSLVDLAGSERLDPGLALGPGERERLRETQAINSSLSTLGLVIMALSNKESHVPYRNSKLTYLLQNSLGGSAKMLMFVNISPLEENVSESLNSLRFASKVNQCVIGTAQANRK
The settings on record: ATP-competitive and MT-noncompetitive; read-out: Ki, inhibition of MT-stimulated KIFC1 enzymatic activity.

As to `CCCc1cc(C(=O)N[C@H](Cc2ccc(-c3cccc(OC(F)(F)F)c3)nc2)C(=O)N[C@@H]2CCNC2)sc1C` [AZ82], the centrosome declustering entry in series [1] is reported as “causes centrosome declustering”. In addition, in series [2], the Ki was 43 nM.
